Data as given in ChEMBL document CHEMBL4418499, “Inhibitors of trim33 and methods of use” (2018).

What was measured:
Homo sapiens = species: Homo sapiens; test: Selectivity index, ratio of IC50 for recombinant TRIM24 (unknown origin) to IC50 for recombinant TRIM33 PHD bromodomain (unknown origin)
[1] = molecular target: T1, Transcription intermediary factor 1-alpha (Homo sapiens, UniProt O15164); test: Inhibition of recombinant TRIM24 (unknown origin) using biotinylated H3 peptide (H3K9me3K18ac) by AlphaScreen assay
T1 sequence (O15164 whole entry): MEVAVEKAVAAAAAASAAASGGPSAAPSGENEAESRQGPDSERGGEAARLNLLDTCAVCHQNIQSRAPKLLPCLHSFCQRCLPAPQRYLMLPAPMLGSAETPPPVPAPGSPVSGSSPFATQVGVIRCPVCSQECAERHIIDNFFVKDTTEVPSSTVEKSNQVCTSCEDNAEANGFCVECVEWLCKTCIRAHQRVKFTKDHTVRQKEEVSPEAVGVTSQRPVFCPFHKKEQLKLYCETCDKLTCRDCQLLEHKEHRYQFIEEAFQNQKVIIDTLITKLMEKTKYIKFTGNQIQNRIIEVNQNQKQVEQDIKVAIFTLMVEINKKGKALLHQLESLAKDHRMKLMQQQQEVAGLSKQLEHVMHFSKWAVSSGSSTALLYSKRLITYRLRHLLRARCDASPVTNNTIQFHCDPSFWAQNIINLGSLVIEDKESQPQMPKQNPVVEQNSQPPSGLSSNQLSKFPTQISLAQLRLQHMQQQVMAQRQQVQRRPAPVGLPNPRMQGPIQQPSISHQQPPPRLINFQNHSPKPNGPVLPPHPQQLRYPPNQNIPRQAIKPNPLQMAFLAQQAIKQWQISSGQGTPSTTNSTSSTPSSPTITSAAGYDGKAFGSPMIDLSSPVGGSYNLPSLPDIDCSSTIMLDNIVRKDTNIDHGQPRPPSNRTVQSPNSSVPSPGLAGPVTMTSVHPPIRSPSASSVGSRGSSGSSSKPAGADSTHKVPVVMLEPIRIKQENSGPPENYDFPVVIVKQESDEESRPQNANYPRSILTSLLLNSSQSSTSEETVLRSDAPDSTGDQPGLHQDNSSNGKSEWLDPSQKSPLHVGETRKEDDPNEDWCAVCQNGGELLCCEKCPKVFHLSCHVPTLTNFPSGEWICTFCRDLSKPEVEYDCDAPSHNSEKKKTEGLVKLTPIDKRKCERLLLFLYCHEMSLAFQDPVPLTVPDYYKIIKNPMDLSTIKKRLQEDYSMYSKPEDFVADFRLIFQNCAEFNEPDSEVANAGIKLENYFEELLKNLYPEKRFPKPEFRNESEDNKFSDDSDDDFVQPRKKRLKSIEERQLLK

[2] = molecular target: T2, E3 ubiquitin-protein ligase TRIM33 (Homo sapiens, UniProt Q9UPN9); test: Inhibition of recombinant TRIM33 PHD bromodomain (unknown origin) using biotinylated H3 peptide (H3K9me3K18ac) by AlphaScreen assay
T2 sequence (Q9UPN9 whole entry): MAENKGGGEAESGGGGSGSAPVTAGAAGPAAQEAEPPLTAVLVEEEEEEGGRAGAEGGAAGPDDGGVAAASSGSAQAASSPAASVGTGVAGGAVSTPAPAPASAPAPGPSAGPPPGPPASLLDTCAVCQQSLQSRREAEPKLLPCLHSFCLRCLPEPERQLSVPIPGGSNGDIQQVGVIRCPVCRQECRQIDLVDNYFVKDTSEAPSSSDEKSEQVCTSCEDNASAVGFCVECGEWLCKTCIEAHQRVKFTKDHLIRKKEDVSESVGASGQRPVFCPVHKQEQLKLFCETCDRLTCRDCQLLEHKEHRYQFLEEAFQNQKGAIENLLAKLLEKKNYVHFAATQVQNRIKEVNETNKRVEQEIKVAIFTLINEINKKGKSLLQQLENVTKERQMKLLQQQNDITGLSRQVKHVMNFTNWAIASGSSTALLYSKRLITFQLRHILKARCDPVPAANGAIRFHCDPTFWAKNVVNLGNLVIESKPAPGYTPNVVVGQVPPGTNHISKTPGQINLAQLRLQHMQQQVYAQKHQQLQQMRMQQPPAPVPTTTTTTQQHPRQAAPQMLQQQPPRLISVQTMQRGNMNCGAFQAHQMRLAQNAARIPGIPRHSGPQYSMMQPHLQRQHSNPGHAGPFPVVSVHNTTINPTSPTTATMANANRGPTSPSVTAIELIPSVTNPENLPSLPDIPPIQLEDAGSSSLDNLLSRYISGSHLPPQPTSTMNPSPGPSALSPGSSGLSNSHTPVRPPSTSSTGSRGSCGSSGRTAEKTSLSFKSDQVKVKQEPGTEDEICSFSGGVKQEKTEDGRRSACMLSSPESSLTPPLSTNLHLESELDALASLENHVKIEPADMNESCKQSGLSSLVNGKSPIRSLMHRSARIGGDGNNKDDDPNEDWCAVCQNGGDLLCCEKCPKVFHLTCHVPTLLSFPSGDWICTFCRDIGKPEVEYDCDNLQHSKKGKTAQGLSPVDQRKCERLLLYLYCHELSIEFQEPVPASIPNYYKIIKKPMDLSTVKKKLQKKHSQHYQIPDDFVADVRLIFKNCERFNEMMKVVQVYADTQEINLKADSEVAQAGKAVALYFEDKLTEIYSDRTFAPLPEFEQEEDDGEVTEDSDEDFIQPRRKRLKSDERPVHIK

Compound | Ratio IC50 (Homo sapiens) | IC50 [1] | IC50 [2]
c1cn2c(NCCN3CCOCC3)c(-c3ccc4nccn4c3)nc2cn1 | 8.45 | 2190 µM | 259 µM
CCCOc1ccn2c(C(C)=O)cc(-c3nc4ccccn4c3NCc3ccc(C#N)cc3)c2c1 | – | – | 46.3 µM
COC(=O)c1ccc2nc(-c3nc[nH]c3C)c(NCc3ccc(C#N)cc3)n2c1 | 2.83 | 319 µM | 113 µM
CCCOc1ccn2c(C(C)=O)cc(-c3nc4ccc(C(=O)OC)cn4c3Nc3ccc(OC)cc3)c2c1 | 7.3 | 355 µM | 48.6 µM
CCCOc1ccn2c(C(C)=O)cc(-c3nc4ccccn4c3NCCOC)c2c1 | 9.36 | 445 µM | 47.5 µM
O=C1CCCCCCC1 [CYCLOOCTANONE] | – | 0.166 µM | 0.25 µM
COCCNc1c(-c2ccc3nccn3c2)nc2ccc(Br)cn12 | 4.53 | 706 µM | 156 µM
COCCNc1c(-c2ccc3nccn3c2)nc2cnccn12 | 28.6 | 5450 µM | 190 µM
COCCNc1c(-c2ccc3nccn3c2)nc2ccccn12 | 41.7 | 5800 µM | 139 µM
Brc1ccc2nc(-c3ccc4nccn4c3)c(NCCN3CCOCC3)n2c1 | – | 1380 µM | –
CCCOc1ccn2c(C(C)=O)cc(-c3nc4ccc(C(=O)OC)cn4c3NCc3ccc(C#N)cc3)c2c1 | 515 | – | 65.1 µM
COc1ccc(Nc2c(-c3nc[nH]c3C)nc3ccc(Br)cn23)cc1 | 189 | – | –
c1cn2c(NC3CCCCC3)c(-c3ccc4nccn4c3)nc2cn1 | – | 320 µM | 169 µM
COC(=O)c1ccc2nc(-c3c[nH]c(C)n3)c(NCc3ccc(C#N)cc3)n2c1 | – | – | 650 µM
O=Cc1ccccc1O | – | 0.221 µM | 0.299 µM
COCCNc1c(-c2nc[nH]c2C)nc2cnccn12 | 115 | – | 204 µM
COc1ccc(CCNc2c(-c3ccc4nccn4c3)nc3ccccn23)cc1OC | – | 1510 µM | –

Compound | Ratio IC50 (Homo sapiens) | IC50 [1] | IC50 [2]
COC(=O)c1ccc2nc(-c3ccc4nccn4c3)c(NC3CCCCC3)n2c1 | – | 502 µM | 42.6 µM
COC(=O)c1ccc2nc(-c3ccc4nccn4c3)c(NCCN3CCOCC3)n2c1 | – | 700 µM | 303 µM
CCCOc1ccn2c(C(C)=O)cc(-c3nc4cnccn4c3NC3CCCCC3)c2c1 | – | – | 80 µM
COC(=O)c1ccc2nc(-c3ccc4nccn4c3)c(NCc3ccc(C#N)cc3)n2c1 | 486 | – | 125 µM
c1ccn2c(NCCN3CCOCC3)c(-c3ccc4nccn4c3)nc2c1 | 48.4 | – | 366 µM
CCCOc1ccn2c(C(C)=O)cc(-c3nc4cnccn4c3NCCOC)c2c1 | – | 2850 µM | –
COC(=O)c1ccc2nc(-c3nc[nH]c3C)c(NCCc3ccc(OC)c(OC)c3)n2c1 | – | 377 µM | –
COc1ccc(CCNc2c(-c3ccc4nccn4c3)nc3cnccn23)cc1OC | 1.9 | – | 29.7 µM
Cc1[nH]cnc1-c1nc2ccccn2c1NC1CCCCC1 | 8.45 | – | –
COCCNc1c(-c2nc[nH]c2C)nc2ccc(C(=O)OC)cn12 | – | 511 µM | –
CCCOc1ccn2c(C(C)=O)cc(-c3nc4ccc(C(=O)OC)cn4c3NCCc3ccc(OC)c(OC)c3)c2c1 | – | 5650 µM | –
Cc1[nH]cnc1-c1nc2ccccn2c1NCCN1CCOCC1 | 13.3 | – | –
COc1ccc(Nc2c(-c3c[nH]c(C)n3)nc3cnccn23)cc1 | – | 385 µM | 153 µM
COC(=O)c1ccc2nc(-c3nc[nH]c3C)c(NCCN3CCOCC3)n2c1 | 11.8 | – | –
CCCOc1ccn2c(C(C)=O)cc(-c3nc4ccc(C(=O)OC)cn4c3NCCOC)c2c1 | – | 2880 µM | –
COc1ccc(Nc2c(-c3nc[nH]c3C)nc3ccccn23)cc1 | 5.35 | – | –

Second part, the compound after the results:

Ratio IC50 (Homo sapiens) | IC50 [1] | IC50 [2] | Compound
5.87 | 226 µM | 38.5 µM | CCCOc1ccn2c(C(C)=O)cc(-c3nc4cnccn4c3Nc3ccc(OC)cc3)c2c1
23.2 | 31.7 µM | 1.36 µM | COc1ccc(CCNc2c(-c3nc[nH]c3C)nc3ccccn23)cc1OC
– | 90.1 µM | – | Cc1nc[nH]c1-c1nc2cnccn2c1NC1CCCCC1
5.88 | 153 µM | 26 µM | COc1ccc(Nc2c(-c3ccc4nccn4c3)nc3ccccn23)cc1
– | 134 µM | – | COCCNc1c(-c2nc[nH]c2C)nc2ccc(Br)cn12
2.17 | 35.4 µM | 16.3 µM | COCCNc1c(-c2nc[nH]c2C)nc2ccccn12
30.8 | 243 µM | 7.88 µM | COCCNc1c(-c2c[nH]c(C)n2)nc2ccc(Br)cn12
– | 0.225 µM | 0.283 µM | Cc1ncc(CO)c(C=O)c1O
2.91 | 29.3 µM | 10.1 µM | Cc1[nH]cnc1-c1nc2ccc(Br)cn2c1NCc1ccc(C#N)cc1
16.4 | 96.5 µM | 5.9 µM | Cc1nc(-c2nc3ccccn3c2NC2CCCCC2)c[nH]1
– | 0.18 µM | 0.305 µM | Cn1cccc1C=O
– | 28.9 µM | – | COc1ccc(CCNc2c(-c3nc[nH]c3C)nc3ccc(Br)cn23)cc1OC
– | 143 µM | – | COC(=O)c1ccc2nc(-c3nc[nH]c3C)c(NC3CCCCC3)n2c1
– | 255 µM | – | CCCOc1ccn2c(C(C)=O)cc(-c3nc4ccc(C(=O)OC)cn4c3NC3CCCCC3)c2c1
– | 100 µM | – | Brc1ccc2nc(-c3ccc4nccn4c3)c(NC3CCCCC3)n2c1
– | 186 µM | 415 µM | Cc1nc(-c2nc3cnccn3c2NC2CCCCC2)c[nH]1
– | 117 µM | – | Cc1[nH]cnc1-c1nc2ccc(Br)cn2c1NCCN1CCOCC1
– | 63.5 µM | – | COc1ccc(CCNc2c(-c3c[nH]c(C)n3)nc3ccc(Br)cn23)cc1OC
– | 0.165 µM | 0.336 µM | O=Cc1cccc(-c2ccc(C(=O)O)cc2)c1
– | 0.133 µM | 0.269 µM | O=Cc1ccc(N2CCCC2)cc1
– | 44.4 µM | – | COc1ccc(CCNc2c(-c3c[nH]c(C)n3)nc3ccccn23)cc1OC
– | 7.86 µM | 5.48 µM | O=Cc1cccnc1Br
– | 2.59 µM | 0.0137 µM | COc1ccc(Nc2c(-c3[nH]cnc3C)nc3ccc(Br)cn23)cc1
– | 0.157 µM | 0.24 µM | Cc1cccc2c(C=O)c[nH]c12
– | 0.136 µM | 0.234 µM | O=C1CCCC1 [CYCLOPENTANONE]
– | 9.03 µM | 1.07 µM | Cc1nc[nH]c1-c1nc2ccccn2c1NC1CCCCC1
– | 4.07 µM | 10.5 to 56.9 µM | COCCNc1c(-c2c[nH]c(C)n2)nc2ccc(C(=O)OC)cn12
– | 0.22 µM | 0.301 µM | COc1ccc(C=O)c(O)c1
– | 0.162 µM | 0.326 µM | COc1cc(C=O)ccc1O [VANILLIN]
